Test results from article PMC11855827, “High-Throughput Screening of Five Compound Libraries for Anthelmintic Activity and Toxicity Leads to the Discovery of Two Flavonoid Compounds” (International Journal of Molecular Sciences, 2025).
Read-outs that look alike come from different tables or passages of the source.

Test system: C. elegans
Test: microbe, parasite or virus in culture
Conditions: Caenorhabditis elegans
[1] = 0 h, read-out: Percentage of motility inhibition 0 h, Table S2, C. elegans SS assay, 110 μM, 0 h, averages of 4 data points
[2] = 24 h, read-out: Percentage of motility inhibition 24 h, Table S2, C. elegans SS assay, 110 μM, 24 h, averages of 4 data points
[3] = 0 h, read-out: Percentage of motility inhibition 0 h
[4] = 24 h, read-out: Percentage of motility inhibition 24 h

| SMILES | inhibition at 110 µM [1] [%] | inhibition at 110 µM [2] [%] | inhibition at 110 µM [3] [%] | inhibition at 110 µM [4] [%] |
| --- | --- | --- | --- | --- |
| C=C1C[C@]2(O)O[C@@]3(CC2=C(C)C)[C@@H](C)CC[C@@H]13 [Isocurcumenol] | 5 | 24 |  |  |
| CN1[C@@H]2CC[C@H]1C[C@@H](O)C2 [Tropine] | 9 | 0 |  |  |
| C=C1CC/C=C(\C)CC[C@@H]2[C@@H]1CC2(C)C [β-Caryophyllene] | 28 | 27 |  |  |
| CC(C)=CCc1c(O)c(CC=C(C)C)c2oc3c(O)cccc3c(=O)c2c1O [8‐Deoxygartanin] | 14 | 0 |  |  |
| Cc1ccc2[nH]c3ccccc3c2c1 [3‐Methylcarbazole] | 0 | 29 |  |  |
| CC(C)(C)C(=O)C(Oc1ccc(Cl)cc1)n1ccnc1 (stereo not drawn) [Climbazole] | 53 | 2 |  |  |
| CC1(C)[C@@H](O[C@H]2O[C@H](C(=O)O)[C@@H](O)[C@H](O)[C@H]2O[C@@H]2O[C@H](C(=O)O)[C@@H](O)[C@H](O)[C@H]2O)CC[C@]2(C)[C@H]3C(=O)C=C4[C@@H]5C[C@@](C)(C(=O)O)CC[C@]5(C)CC[C@@]4(C)[C@]3(C)CC[C@@H]12 [Glycyrrhizic acid] | 0 | 0 |  |  |
| O=C(Nc1ccc(O)cc1)c1ccccc1O [Osalmid] | 48 | 1 |  |  |
| Cc1ncc(C[n+]2csc(CCO)c2C)c(N)n1 [Thiamine monochloride] | 13 | 6 |  |  |
| COc1ccc(-c2cc(=O)c3c(O)c(OC)c(O)c(OC)c3o2)cc1 [Nevadensin] | 39 | 0 |  |  |
| O=C1CN(/N=C/c2ccc([N+](=O)[O-])o2)C(=O)N1 [Nitrofurantoin] | 24 | 4 |  |  |
| Nc1ccc(S(=O)(=O)Nc2ccc(Cl)nn2)cc1 [Sulfachloropyridazine] | 14 | 0 |  |  |
| CC[C@]12C=CCN3CC[C@]4(C(=C(C(=O)OC)C1)Nc1ccccc14)[C@@H]32 [Tabersonine] | 0 | 1 |  |  |
| O=Cc1ccc[nH]1 [Pyrrole‐2‐carboxaldehyde] | 0 | 6 |  |  |
| CCCCC/C=C/C(=O)CCc1ccc(O)c(OC)c1 [Shogaol] | 0 | 5 |  |  |
| C[C@]12CC[C@@H]3c4ccc(O)cc4CC[C@H]3[C@@H]1CC[C@@H]2O [Estradiol] | 1 | 2 |  |  |
| Cn1c(N2CCCCS2(=O)=O)nc(C(=O)NCc2ccc(F)cc2)c(O)c1=O [BMS‐707035] | 0 | 1 |  |  |
| COc1cnc(NS(=O)(=O)c2ccc(N)cc2)nc1 [Sulfameter] | 25 | 8 |  |  |
| O=C(O)CCc1nc2ccccc2[nH]1 [Procodazole] |  |  | 0 | 3 |
| COc1cc2c(cc1Cc1cccc(Cl)c1F)c(=O)c(C(=O)O)cn2[C@H](CO)C(C)C [Elvitegravir] | 23 | 48 |  |  |
| C=CC1(C)Cc2occ(C)c2C(=O)C1C(=C)C (stereo not drawn) [Curzerenone] | 10 | 9 |  |  |

| SMILES | inhibition at 110 µM [1] [%] | inhibition at 110 µM [2] [%] | inhibition at 110 µM [3] [%] | inhibition at 110 µM [4] [%] |
| --- | --- | --- | --- | --- |
| COc1c(O)cc2occ(-c3ccc(O)cc3)c(=O)c2c1O [Tectorigenin] |  |  | 0 | 0 |
| O=C1C=CC[C@@H]2[C@H]3CCCN4CCC[C@@H](CN12)[C@@H]34 [Sophocarpine] | 11 | 9 |  |  |
| COc1ccc([C@@H]2CC(=O)c3c(O)cc(O)cc3O2)cc1O [Hesperetin] | 21 | 5 |  |  |
| COC(=O)c1cc(OC)c2c(c1-c1c(CO)cc(OC)c3c1OCO3)OCO2 [Bicyclol] | 23 | 4 |  |  |
| C/C=C1/[C@H](O[C@@H]2O[C@H](CO)[C@@H](O)[C@H](O)[C@H]2O)OC=C(C(=O)OC)[C@H]1CC(=O)OCCc1ccc(O)c(O)c1 [Oleuropein] | 0 | 0 |  |  |
| O=c1c(O)c(-c2ccc(O)cc2)oc2cc(O)cc(O)c12 [Kaempferol] | 0 | 25 |  |  |
| O=C(O)CC(O)(CC(=O)O)C(=O)O [Citric acid] | 0 | 18 |  |  |
| CC(=O)OCC1=C[C@H](O)[C@@H]2C(C(=O)O)=CO[C@@H](O[C@@H]3O[C@H](CO)[C@@H](O)[C@H](O)[C@H]3O)[C@H]12 [Asperulosidic Acid] | 2 | 0 |  |  |
| N[C@@H](Cc1c[nH]c2ccccc12)C(=O)O [L-Tryptophan] |  |  | 26 | 3 |
| C/C1=C\CCC2=C[C@@H](OC2=O)c2c(C)coc2C1 [Linderalactone] | 0 | 45 |  |  |
| COC(=O)c1cccnc1 [Methyl nicotinate] |  |  | 0 | 0 |
| Oc1c(I)cc(I)c2cccnc12 [Diiodohydroxyquinoline] | 38 | 40 |  |  |
| CC(=O)Nc1ncc([N+](=O)[O-])s1 [Nithiamide] | 32 | 7 |  |  |
| OC[C@@H](O)[C@@H](O)[C@H](O)[C@@H](O)CO [D-Sorbitol] | 0 | 7 |  |  |
| C=C1C(=O)[C@]23C[C@H]1C[C@@H](O)[C@H]2[C@@]12CO[C@@H](O)[C@@H]1C(C)(C)CC[C@@H]2OC3=O [Nodosin] | 0 | 14 |  |  |
| COc1cc(-c2oc3cc(O)cc(O)c3c(=O)c2O)ccc1O [Isorhamnetin] | 22 | 2 |  |  |
| C=C(C)[C@@H]1CC[C@]2(COC(C)=O)CC[C@]3(C)[C@H](CC[C@@H]4[C@@]5(C)CC[C@H](OC(C)=O)C(C)(C)[C@@H]5CC[C@]43C)[C@@H]12 [Betulin diacetate] | 11 | 0 |  |  |
| COc1cc(O)ccc1/C=C/C(=O)c1ccc(O)cc1 [Echinatin] | 17 | 10 |  |  |
| NC(=O)N/N=C/c1ccc([N+](=O)[O-])o1 [Nitrofurazone] | 25 | 22 |  |  |
| Clc1ccccc1C(c1ccccc1)(c1ccccc1)n1ccnc1 [Clotrimazole] | 6 | 0 |  |  |
| C[C@H]1[C@H](C)CC[C@]2(C(=O)O)CC[C@]3(C)C(=CC[C@@H]4[C@@]5(C)CC[C@H](O)C(C)(C)[C@@H]5CC[C@]43C)[C@H]12 [Ursolic acid] | 0 | 0 |  |  |

| SMILES | inhibition at 110 µM [1] [%] | inhibition at 110 µM [2] [%] | inhibition at 110 µM [3] [%] | inhibition at 110 µM [4] [%] |
| --- | --- | --- | --- | --- |
| COc1cc(O)c(CC=C(C)C)c(O)c1C(=O)/C=C/c1ccc(O)cc1 [Xanthohumol] | 23 | 13 |  |  |
| O=c1c(O)c(-c2ccc(O)c(O)c2)oc2cc(O)ccc12 [Fisetin] | 0 | 2 |  |  |
| O=C(O)CCC(=O)Nc1ccc(S(=O)(=O)Nc2nccs2)cc1 [Succinylsulfathiazole] | 31 | 17 |  |  |
| O=C1C(O)=C([C@H]2CC[C@H](c3ccc(Cl)cc3)CC2)C(=O)c2ccccc21 [Atovaquone] | 18 | 2 |  |  |
| c1ccc2[nH]ccc2c1 [Indole] |  |  | 13 | 9 |
| C/C(=C\C(=O)CC(C)C(=O)O)[C@H]1C[C@H](O)[C@@]2(C)C3=C(C(=O)C[C@]12C)[C@@]1(C)CCC(=O)C(C)(C)[C@@H]1C[C@@H]3O (stereo partly drawn) [Ganoderenic acid A] | 0 | 0 |  |  |
| CSc1ccc(OCc2ncc([N+](=O)[O-])n2C)cc1 [Fexinidazole] | 11 | 29 |  |  |
| COc1cc(C=O)ccc1O [Vanillin] | 24 | 11 |  |  |
| COc1ccc(-c2cc(=O)c3c(O)c(OC)c(O)cc3o2)cc1 [Pectolinarigenin] | 4 | 0 |  |  |
| CN(C)c1cc(NC(=O)CNC(C)(C)C)c(O)c2c1C[C@H]1C[C@H]3[C@H](N(C)C)C(O)=C(C(N)=O)C(=O)[C@@]3(O)C(O)=C1C2=O [Tigecycline] | 31 | 19 |  |  |
| CCN(CC)CCNc1ccc(CO)c2sc3ccccc3c(=O)c12 [Hycanthone] | 31 | 26 |  |  |
| Oc1c(Cl)cc(Cl)cc1Sc1cc(Cl)cc(Cl)c1O [Bithionol] | 40 | 40 |  |  |
| CC(C)(C)[C@]1(O)CC2OC(=O)CC23C(=O)OC2OC(=O)[C@H](O)C231 (stereo partly drawn) [Bilobalide] | 0 | 23 |  |  |
| O=c1c(O)c(-c2ccc(O)c(O)c2)oc2cc(O[C@@H]3O[C@H](CO)[C@@H](O)[C@H](O)[C@H]3O)cc(O)c12 [Quercimeritrin] | 0 | 3 |  |  |
| O=c1c(O[C@@H]2OC[C@@H](O)[C@H](O)[C@H]2O)c(-c2ccc(O)c(O)c2)oc2cc(O)cc(O)c12 [Reynoutrin] | 0 | 7 |  |  |
| N[C@@H](CC(=O)O)C(=O)O [L-Aspartic acid] | 20 | 30 |  |  |
| COc1c(OC)c2nccc3c4ccccc4n(c1=O)c23 [4,5‐Dimethoxycanthin‐6‐one] | 0 | 22 |  |  |
| CSCC[C@H](N)C(=O)O [L-Methionine] | 0 | 0 |  |  |
| C=C1CC[C@@H]2[C@](C)(CO[C@@H]3O[C@H](CO)[C@@H](O)[C@H](O)[C@H]3O)CCC[C@@]2(C)[C@@H]1CCC1=CCOC1=O [Neoandrographolide] | 15 | 40 |  |  |
| CSCCC(N)C(=O)O (racemic) [DL-Methionine] | 6 | 2 |  |  |
| O=C(C1CCCCC1)N1CC(=O)N2CCc3ccccc3C2C1 (stereo not drawn) [Praziquantel] | 27 | 0 |  |  |
